{"source": "patent US20090239846A1", "about": "“Novel Compounds” (Glaxo Group Limited, priority 2005, published 2009)", "key": {"Recombinant human p38α": {"molecular_target": "T1, Recombinant human p38α (Homo sapiens, UniProt Q16539)", "T1 construct": "GST; made in house", "T1 sequence (Q16539 whole entry)": "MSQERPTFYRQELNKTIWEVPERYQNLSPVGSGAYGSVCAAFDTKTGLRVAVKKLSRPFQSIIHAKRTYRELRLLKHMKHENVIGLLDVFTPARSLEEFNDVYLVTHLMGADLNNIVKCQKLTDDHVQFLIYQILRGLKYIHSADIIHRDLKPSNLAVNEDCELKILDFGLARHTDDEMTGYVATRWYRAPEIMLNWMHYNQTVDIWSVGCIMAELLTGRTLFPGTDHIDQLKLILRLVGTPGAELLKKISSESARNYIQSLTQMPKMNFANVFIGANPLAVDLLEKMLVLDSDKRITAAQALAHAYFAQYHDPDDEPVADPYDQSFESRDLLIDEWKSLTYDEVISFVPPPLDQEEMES", "assay": "Fluorescence anisotropy kinase binding assay (standard or low volume)", "conditions": "for active in the assay (pIC50, p38α binding): 12 nM p38α, 5 nM fluorescent ligand; call rule not given here", "method_in_brief": "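Activated GST-tagged recombinant human p38α (pre-activated with MBP-MKK6 DD) at 12 nM final with 5 nM rhodamine green-labelled pyridinylimidazole tracer in pH 7.5 HEPES/CHAPS/DTT/MgCl2 buffer. Test compound 0.28 nM–16.6 μM or 0.02 nM–25 μM final, 3% or 1.7% DMSO; 30–60 min at room temperature. Fluorescence anisotropy read (ex 485/em 535 nm) for Ki.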"}, "[1]": {"system": "IL-8 production by human neutrophils", "assay": "TNF-stimulated IL-8 production from human neutrophils", "format": "cell-based", "conditions": "Neutrophil"}, "[2]": {"system": "influx of neutrophils to the lung in LPS-challenged rats", "assay": "Rat LPS neutrophilia model", "format": "in vivo", "conditions": "LPS aerosol, lavage 4 hours later, in at least one of the range of conditions tested, significance p<0.05", "method_in_brief": "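Rats pretreated 15 min–24 h with compound or vehicle, given intratracheally (200 ul, isoflurane anaesthesia) as suspension in various vehicles, then exposed to LPS aerosol (100 ug/ml) 15 min. BAL 4 h later; Diffquick-stained differential counts give % inhibition of neutrophils versus no-compound controls at a set concentration and pretreatment time.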"}, "[3]": {"conditions": "bound, not more than 50% inhibition at 100 nM, read-out: IC50"}, "[4]": {"conditions": "ends given as 'less than' / 'greater than', read-out: IC50, broad range of data upon multiple runs"}, "[5]": {"conditions": "bound, read-out: apparent pIC50 (converted)"}, "[6]": {"conditions": "second end given as 'less than', read-out: pIC50, broad range of data upon multiple runs (converted)"}}, "note": "pIC50: −log10 of the molar value. Counter-ions that a name gives are not always drawn. Like-named read-outs stand apart in the source and are kept apart here."}
{"compound": "Cc1ccc(C(=O)NCC2CC2)cc1-c1nc(NC2CCNCC2)nc2c1CNC(=O)N2c1c(F)cccc1F", "note": "[6(b), N-(Cyclopropylmethyl)-3-[8-(2,6-difluorophenyl)-7-oxo-2-(4-piperidinylamino)-5,6,7,8-tetrahydropyrimido[4,5-d]pyrimidin-4-yl]-4-methylbenzamide]", "values": [{"measurement": "active in the assay (pIC50, p38α binding)", "setting": "Recombinant human p38α", "value": "active"}, {"measurement": "pIC50", "setting": "[1]; [3]", "value": "< 7.00"}]}
{"compound": "CSc1nc(-c2cc(C(=O)NCc3ccccc3)ccc2C)c2c(n1)N(c1c(F)cccc1F)C(=O)NC2", "note": "[15(a), 3-[8-(2,6-Difluorophenyl)-2-(methylthio)-7-oxo-5,6,7,8-tetrahydropyrimido[4,5-d]pyrimidin-4-yl]-4-methyl-N-(phenylmethyl)benzamide]", "values": [{"measurement": "active in the assay (pIC50, p38α binding)", "setting": "Recombinant human p38α", "value": "active"}, {"measurement": "pIC50", "setting": "[1]; [4]", "value": "7.00 to 7.40"}]}
{"compound": "Cc1ccc(C(=O)NCc2ccccc2)cc1-c1nc(S(C)(=O)=O)nc2c1CNC(=O)N2c1c(F)cccc1F", "note": "[15(b), 3-[8-(2,6-Difluorophenyl)-2-(methylsulfonyl)-7-oxo-5,6,7,8-tetrahydropyrimido[4,5-d]pyrimidin-4-yl]-4-methyl-N-(phenylmethyl)benzamide]", "values": [{"measurement": "active in the assay (pIC50, p38α binding)", "setting": "Recombinant human p38α", "value": "active"}, {"measurement": "pIC50", "setting": "[1]; [3]", "value": "< 7.00"}]}
{"compound": "Cc1ccc(C(=O)NCc2ccccc2)cc1-c1nc(NCCN(C)C(=O)OC(C)(C)C)nc2c1CNC(=O)N2c1c(F)cccc1F", "note": "[19(a), 1,1-Dimethylethyl (2-{[8-(2,6-difluorophenyl)-4-(2-methyl-5-{[(phenylmethyl)amino]carbonyl}phenyl)-7-oxo-5,6,7,8-tetrahydropyrimido[4,5-d]pyrimidin-2-yl]amino}ethyl)methylcarbamate]", "values": [{"measurement": "IC50", "setting": "Recombinant human p38α; [5]", "value": "> 15800", "unit": "nM"}, {"measurement": "pIC50", "setting": "[1]; [4]", "value": "7.00 to 7.40"}]}
{"compound": "Cc1ccc(C(=O)Nc2ccc(C)c(-c3nc(S(C)(=O)=O)nc4c3CNC(=O)N4c3c(F)cccc3F)c2)cc1F", "note": "[23(d), N-[3-[8-(2,6-difluorophenyl)-2-(methylsulfonyl)-7-oxo-5,6,7,8-tetrahydropyrimido[4,5-d]pyrimidin-4-yl]-4-methylphenyl]-3-fluoro-4-methylbenzamide]", "values": [{"measurement": "active in the assay (pIC50, p38α binding)", "setting": "Recombinant human p38α", "value": "active"}, {"measurement": "pIC50", "setting": "[1]; [3]", "value": "< 7.00"}]}
{"compound": "CN(C)CCNc1nc(-c2ccc(C(=O)Nc3nccs3)cc2)c2c(n1)N(c1c(F)cccc1F)C(=O)NC2", "note": "[96(b), 4-(8-(2,6-difluorophenyl)-2-{[2-(dimethylamino)ethyl]amino}-7-oxo-5,6,7,8-tetrahydropyrimido[4,5-d]pyrimidin-4-yl)-N-1,3-thiazol-2-ylbenzamide]", "values": [{"measurement": "active in the assay (pIC50, p38α binding)", "setting": "Recombinant human p38α", "value": "active"}, {"measurement": "pIC50", "setting": "[1]; [3]", "value": "< 7.00"}]}
{"compound": "CCN(CC)C(=O)c1ccc(C)c(-c2nc(SC)nc3c2CNC(=O)N3c2c(F)cccc2F)c1", "note": "[156(a)]", "values": [{"measurement": "active in the assay (pIC50, p38α binding)", "setting": "Recombinant human p38α", "value": "active"}, {"measurement": "pIC50", "setting": "[1]; [3]", "value": "< 7.00"}]}
{"compound": "CCN(CC)C(=O)c1ccc(C)c(-c2nc(S(C)(=O)=O)nc3c2CNC(=O)N3c2c(F)cccc2F)c1", "note": "[156(b), 3-[8-(2,6-difluorophenyl)-2-(methylsulfonyl)-7-oxo-5,6,7,8-tetrahydropyrimido[4,5-d]pyrimidin-4-yl]-N,N-diethyl-4-methylbenzamide]", "values": [{"measurement": "active in the assay (pIC50, p38α binding)", "setting": "Recombinant human p38α", "value": "active"}, {"measurement": "pIC50", "setting": "[1]; [3]", "value": "< 7.00"}]}
{"compound": "CNCCNc1nc(-c2cc(C(=O)NCC3CC3)ccc2C)c2c(n1)N(c1c(F)cccc1F)C(=O)NC2", "note": "[Example 5, N-(Cyclopropylmethyl)-3-(8-(2,6-difluorophenyl)-2-{[2-(methylamino)ethyl]amino}-7-oxo-5,6,7,8-tetrahydropyrimido[4,5-d]pyrimidin-4-yl)-4-methylbenzamide]", "values": [{"measurement": "active in the assay (pIC50, p38α binding)", "setting": "Recombinant human p38α", "value": "active"}, {"measurement": "pIC50", "setting": "[1]; [3]", "value": "< 7.00"}]}
{"compound": "Cc1ccc(NC(=O)c2ccsc2)cc1-c1nc(N(C)C)nc2c1CNC(=O)N2c1c(F)cccc1F", "note": "[Example 12, N-{3-[8-(2,6-difluorophenyl)-2-(dimethylamino)-7-oxo-5,6,7,8-tetrahydropyrimido[4,5-d]pyrimidin-4-yl]-4-methylphenyl}-3-thiophenecarboxamide]", "values": [{"measurement": "melting point", "value": "214 to 215", "unit": "°C"}]}
{"compound": "CCOc1nc(-c2cc(NC(=O)c3ccsc3)ccc2C)c2c(n1)N(c1c(F)cccc1F)C(=O)NC2", "note": "[Example 13]", "values": [{"measurement": "melting point", "value": "199 to 202 °C (dec.)"}]}
{"compound": "CNc1nc(-c2cc(NC(=O)c3ccsc3)ccc2C)c2c(n1)N(c1c(F)cccc1F)C(=O)NC2", "note": "[Example 14, N-{3-[8-(2,6-difluorophenyl)-2-(methylamino)-7-oxo-5,6,7,8-tetrahydropyrimido[4,5-d]pyrimidin-4-yl]-4-methylphenyl}-3-thiophenecarboxamide]", "values": [{"measurement": "melting point", "value": "203 to 207 °C (dec.)"}]}
{"compound": "Cc1ccc(C(=O)NCc2ccccc2)cc1-c1nc(NC2CC(C)(C)NC(C)(C)C2)nc2c1CNC(=O)N2c1c(F)cccc1F", "note": "[Example 16, 3-{8-(2,6-Difluorophenyl)-7-oxo-2-[(2,2,6,6-tetramethyl-4-piperidinyl)amino]-5,6,7,8-tetrahydropyrimido[4,5-d]pyrimidin-4-yl}-4-methyl-N-(phenylmethyl)benzamide]", "values": [{"measurement": "melting point", "value": "160 to 165 °C (dec.)"}]}
{"compound": "CCOc1nc(-c2cc(NC(=O)c3ccc(C)c(F)c3)ccc2C)c2c(n1)N(c1c(F)cccc1F)C(=O)NC2", "note": "[Example 25]", "values": [{"measurement": "melting point", "value": "257.3 to 262.5", "unit": "°C"}]}
{"compound": "Cc1ccc(C(=O)NC(C)C)cc1-c1nc(N2CCC(N3CCN(C)CC3)CC2)nc2c1CNC(=O)N2c1c(F)cccc1F", "note": "[Example 72, 3-{8-(2,6-difluorophenyl)-2-[4-(4-methyl-1-piperazinyl)-1-piperidinyl]-7-oxo-5,6,7,8-tetrahydropyrimido[4,5-d]pyrimidin-4-yl}-4-methyl-N-(1-methylethyl)benzamide]", "values": [{"measurement": "pIC50", "setting": "[1]; bound, screened at a different top concentration, read-out: IC50", "value": "< 9.00"}, {"measurement": "inhibition of neutrophilia", "setting": "[2]", "value": "statistically significant inhibition of neutrophilia"}]}
{"compound": "Cc1ccc(C(=O)NC(C)C)cc1-c1nc(N2CCN(C(c3ccccc3)c3ccccc3)CC2)nc2c1CNC(=O)N2c1c(F)cccc1F", "note": "[Example 84, 3-{8-(2,6-difluorophenyl)-2-[4-(diphenylmethyl)-1-piperazinyl]-7-oxo-5,6,7,8-tetrahydropyrimido[4,5-d]pyrimidin-4-yl}-4-methyl-N-(1-methylethyl)benzamide trifluoroacetate]", "values": [{"measurement": "IC50", "setting": "Recombinant human p38α; [6]", "value": "> 1780", "unit": "nM"}, {"measurement": "pIC50", "setting": "[1]; [3]", "value": "< 7.00"}]}
{"compound": "CCCNC(=O)c1ccc(-c2nc(NCCN(C)C)nc3c2CNC(=O)N3c2c(F)cccc2F)cc1", "note": "[Example 98, 4-(8-(2,6-difluorophenyl)-2-{[2-(dimethylamino)ethyl]amino}-7-oxo-5,6,7,8-tetrahydropyrimido[4,5-d]pyrimidin-4-yl)-N-propylbenzamide trifluoroacetate]", "values": [{"measurement": "IC50", "setting": "Recombinant human p38α; [5]", "value": "> 15800", "unit": "nM"}, {"measurement": "pIC50", "setting": "[1]; [3]", "value": "< 7.00"}]}
{"compound": "CN(C)CCNc1nc(-c2ccc(C(=O)Nc3ccccc3)cc2)c2c(n1)N(c1c(F)cccc1F)C(=O)NC2", "note": "[Example 99, 4-(8-(2,6-difluorophenyl)-2-{[2-(dimethylamino)ethyl]amino}-7-oxo-5,6,7,8-tetrahydropyrimido[4,5-d]-pyrimidin-4-yl)-N-phenylbenzamide trifluoroacetate]", "values": [{"measurement": "IC50", "setting": "Recombinant human p38α; [6]", "value": "≥ 1260", "unit": "nM"}, {"measurement": "pIC50", "setting": "[1]; [3]", "value": "< 7.00"}]}
{"compound": "CN(C)CCNc1nc(-c2ccc(C(=O)Nc3ccc(F)cc3)cc2)c2c(n1)N(c1c(F)cccc1F)C(=O)NC2", "note": "[Example 100, 4-(8-(2,6-difluorophenyl)-2-{[2-(dimethylamino)ethyl]amino}-7-oxo-5,6,7,8-tetrahydropyrimido[4,5-d]pyrimidin-4-yl)-N-(4-fluorophenyl)benzamide trifluoroacetate]", "values": [{"measurement": "IC50", "setting": "Recombinant human p38α; [5]", "value": "> 15800", "unit": "nM"}, {"measurement": "pIC50", "setting": "[1]; [3]", "value": "< 7.00"}]}
{"compound": "CN(C)CCNc1nc(-c2ccc(C(=O)N(C)C)cc2)c2c(n1)N(c1c(F)cccc1F)C(=O)NC2", "note": "[Example 101, 4-(8-(2,6-difluorophenyl)-2-{[2-(dimethylamino)ethyl]amino}-7-oxo-5,6,7,8-tetrahydropyrimido[4,5-d]pyrimidin-4-yl)-N,N-dimethylbenzamide trifluoroacetate]", "values": [{"measurement": "IC50", "setting": "Recombinant human p38α; [5]", "value": "> 15800", "unit": "nM"}, {"measurement": "pIC50", "setting": "[1]; [3]", "value": "< 7.00"}]}
{"compound": "CN(C)CCNc1nc(-c2ccc(C(N)=O)cc2)c2c(n1)N(c1c(F)cccc1F)C(=O)NC2", "note": "[Example 103, 4-(8-(2,6-difluorophenyl)-2-{[2-(dimethylamino)ethyl]amino}-7-oxo-5,6,7,8-tetrahydropyrimido[4,5-d]pyrimidin-4-yl)benzamide trifluoroacetate]", "values": [{"measurement": "IC50", "setting": "Recombinant human p38α; [5]", "value": "> 15800", "unit": "nM"}, {"measurement": "pIC50", "setting": "[1]; [3]", "value": "< 7.00"}]}
{"compound": "Cc1ccc(C(=O)NCc2ccccc2)cc1-c1nc(N2CCC(N(C)C(=O)OC(C)(C)C)CC2)nc2c1CNC(=O)N2c1c(F)cccc1F", "note": "[Example 147, 1,1-dimethylethyl {1-[8-(2,6-difluorophenyl)-4-(2-methyl-5-{[(phenylmethyl)amino]carbonyl}phenyl)-7-oxo-5,6,7,8-tetrahydropyrimido[4,5-d]pyrimidin-2-yl]-4-piperidinyl}methylcarbamate]", "values": [{"measurement": "melting point", "value": "146 to 150 °C (dec.)"}]}
{"compound": "CNC(=O)c1ccc(C)c(-c2nc(NCCNC(C)C)nc3c2CNC(=O)N3c2c(F)cccc2F)c1", "note": "[Example 167, 3-[8-(2,6-difluorophenyl)-2-({2-[(1-methylethyl)amino]ethyl}amino)-7-oxo-5,6,7,8-tetrahydropyrimido[4,5-d]-pyrimidin-4-yl]-N,4-dimethylbenzamide]", "values": [{"measurement": "melting point", "value": "136 to 139 °C (dec.)"}]}
{"compound": "CNC(=O)c1ccc(C)c(-c2nc(NCCCNC(C)C)nc3c2CNC(=O)N3c2c(F)cccc2F)c1", "note": "[Example 168, 3-[8-(2,6-difluorophenyl)-2-({3-[(1-methylethyl)amino]propyl}amino)-7-oxo-5,6,7,8-tetrahydropyrimido[4,5-d]pyrimidin-4-yl]-N,4-dimethylbenzamide]", "values": [{"measurement": "melting point", "value": "153 to 157 °C (dec.)"}]}
